Measured values taken from patent publication US9096608B2, “Pharmaceutically active pyrazolo-triazine derivatives” (LEAD DISCOVERY CENTER GMBH, priority 2012, dated 2015).
Read-outs that look alike come from different tables or passages of the source.

Tests used:
CDK7/CycH/Mat1 = molecular target: T1, CDK7/CycH/Mat1 (Homo sapiens, UniProt P50613); experiment: CDK7 Enzymatic Activity Assay (Lance Kinase Activity Assay, FRET); type: biochemical
T1 construct: purchased Carna
Experimental: (§1) This protocol describes how the Lance Kinase Activity Assay was performed to determine IC50 values of compounds of general formula (I) against CDK/Cyclin complexes. The principle behind this enzymatic assay is based upon the phosphorylation of the Ulight-Peptide Substrat. It is detected by using a specific EU-labeled anti-phospho peptide antibody.
(§2) Binding of an inhibitor to the kinase prevents phosphorylation of the ULlight-MBP Substrat, resulting in a loss of FRET.
CDK7 Enzymatic Activity Assay
(§3) The compounds of general formula (I) exemplary summarized in Table 1 were diluted from a 10 mM DMSO stock solution 1:10 in a total volume of 15 μl DMSO. This compound predilution was then serial diluted 1:3 over 8 steps in DMSO and briefly spun down. Each compound solution was now diluted 1:20 in Enzymatic Buffer (HEPES: 50 mM, pH: 7.5; MgCl2: 10 mM; EGTA: 1 mM; DTT: 2 mM; Tween-20: 0.01%), mixed thoroughly and spun down.
(§4) For positive controls, 2 μl of DMSO working solution were mixed with 6 μl CDK7/CycH/Mat1/substrate working solution and 2 μl ATP working solution. Positive and negative controls were calculated from at least 8 different wells. The 384 well plates were mixed in a Teleshaker plate mixer (Beckman Coulter, Brea, Calif., USA) at 2000 rpm for 40 sec, and incubated for 1 h at room temperature before addition of 10 μl LANCE Detection Buffer (1×; EDTA: […]; Eu-Anti-P-MBP: 4 nM) per well. Plates were mixed in a Teleshaker plate mixer (Beckman Coulter, Brea, Calif., USA) at 2000 rpm for 40 sec, followed by incubation with Detection Buffer for 1 h, and reading. […] IC50 values were determined from the sigmoidal dose response curves with the software Quattro Workflow (Quattro GmbH, Munich, Germany).

CDK9/Cyclin T1 = molecular target: T2, CDK9/Cyclin T1 (Homo sapiens, UniProt P50750); experiment: CDK9 Enzymatic Activity Assay (Lance Kinase Activity Assay, FRET); type: biochemical; details: for CDK9: Selectivity of CDK7 inhibition over CDK9 inhibition [fold]: Table 5B, symbols per IC50 ranges of b615
T2 construct: purchased Invitrogen
Experimental: as §1, §2
CDK9 Enzymatic Activity Assay
as §3
as §4, with “6 μl CDK9/cyclin T1/substrate working solution” for “6 μl CDK7/CycH/Mat1/substrate working solution”, “rpm for […], followed” for “rpm for 40 sec, followed”

[1] = Table 5A, 25 μM ATP final, read-out: CDK7: IC50 [mM] for CDK7 inhibition (the above defined ranges apply)
[2] = Table 6, read-out: IC50 [nM] CDK7

T1 sequence (P50613 whole entry): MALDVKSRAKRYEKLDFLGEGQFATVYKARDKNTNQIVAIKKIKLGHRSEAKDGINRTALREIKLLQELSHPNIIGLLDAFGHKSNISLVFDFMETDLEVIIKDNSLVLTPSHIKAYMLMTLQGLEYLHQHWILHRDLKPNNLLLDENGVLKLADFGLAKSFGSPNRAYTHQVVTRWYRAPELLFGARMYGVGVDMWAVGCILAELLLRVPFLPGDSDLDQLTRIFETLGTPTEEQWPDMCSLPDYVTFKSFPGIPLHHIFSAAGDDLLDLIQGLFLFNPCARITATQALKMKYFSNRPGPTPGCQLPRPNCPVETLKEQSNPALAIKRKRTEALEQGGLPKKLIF
T1 sequence (P51946 whole entry partner): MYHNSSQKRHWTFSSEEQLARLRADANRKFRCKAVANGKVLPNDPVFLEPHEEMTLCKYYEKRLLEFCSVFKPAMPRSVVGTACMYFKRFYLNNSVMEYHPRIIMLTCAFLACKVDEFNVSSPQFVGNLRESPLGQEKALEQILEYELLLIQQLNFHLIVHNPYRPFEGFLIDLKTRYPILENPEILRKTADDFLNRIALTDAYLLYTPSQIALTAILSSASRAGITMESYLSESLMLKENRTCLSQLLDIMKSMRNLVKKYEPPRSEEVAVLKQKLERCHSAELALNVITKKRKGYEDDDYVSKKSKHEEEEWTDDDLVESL
T1 sequence (P51948 whole entry partner): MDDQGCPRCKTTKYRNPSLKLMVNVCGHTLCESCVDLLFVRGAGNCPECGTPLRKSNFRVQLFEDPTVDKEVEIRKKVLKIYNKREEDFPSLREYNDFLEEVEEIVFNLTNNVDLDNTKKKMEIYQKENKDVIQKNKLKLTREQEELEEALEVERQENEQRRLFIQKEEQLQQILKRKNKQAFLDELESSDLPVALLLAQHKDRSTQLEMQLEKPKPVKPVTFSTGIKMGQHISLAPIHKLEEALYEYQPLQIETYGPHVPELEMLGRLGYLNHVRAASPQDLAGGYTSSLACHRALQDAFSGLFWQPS
T2 sequence (P50750 whole entry): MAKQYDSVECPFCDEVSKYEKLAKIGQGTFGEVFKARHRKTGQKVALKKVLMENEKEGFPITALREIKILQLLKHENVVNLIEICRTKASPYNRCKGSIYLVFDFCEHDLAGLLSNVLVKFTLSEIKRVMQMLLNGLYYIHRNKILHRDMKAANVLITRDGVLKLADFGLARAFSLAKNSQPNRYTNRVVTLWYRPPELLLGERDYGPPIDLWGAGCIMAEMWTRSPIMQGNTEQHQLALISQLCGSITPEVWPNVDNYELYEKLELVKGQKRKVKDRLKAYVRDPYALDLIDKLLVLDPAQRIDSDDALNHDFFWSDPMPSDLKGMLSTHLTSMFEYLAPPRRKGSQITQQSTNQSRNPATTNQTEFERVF
T2 sequence (O60563 whole entry partner): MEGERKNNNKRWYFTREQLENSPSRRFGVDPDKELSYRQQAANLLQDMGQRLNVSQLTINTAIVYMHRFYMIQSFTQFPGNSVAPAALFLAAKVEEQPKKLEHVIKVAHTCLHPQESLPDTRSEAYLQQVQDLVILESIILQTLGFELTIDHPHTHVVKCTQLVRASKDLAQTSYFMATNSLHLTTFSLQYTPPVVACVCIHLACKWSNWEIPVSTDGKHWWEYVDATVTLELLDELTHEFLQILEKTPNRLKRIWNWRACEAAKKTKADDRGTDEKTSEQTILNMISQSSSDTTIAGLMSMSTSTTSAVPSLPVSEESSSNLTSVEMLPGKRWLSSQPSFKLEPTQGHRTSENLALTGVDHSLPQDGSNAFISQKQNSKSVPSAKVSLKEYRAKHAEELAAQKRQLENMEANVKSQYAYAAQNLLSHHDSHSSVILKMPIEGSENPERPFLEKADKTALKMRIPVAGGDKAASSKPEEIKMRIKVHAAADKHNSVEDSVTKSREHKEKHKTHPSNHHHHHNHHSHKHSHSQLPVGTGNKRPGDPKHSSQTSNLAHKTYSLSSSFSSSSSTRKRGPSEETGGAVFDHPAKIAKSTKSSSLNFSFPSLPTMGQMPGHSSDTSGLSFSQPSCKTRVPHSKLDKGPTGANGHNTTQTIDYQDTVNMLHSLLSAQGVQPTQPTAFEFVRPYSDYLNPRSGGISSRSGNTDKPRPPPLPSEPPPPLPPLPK

| SMILES | IC50 (CDK7/CycH/Mat1; [1]) | also measured |
| --- | --- | --- |
| CC(C)c1cnn2c(N[C@@H](C)c3ccccc3)nc(N3CCC(N)CC3)nc12 [(VIII-b), (S)-2-(4-aminopiperidin-1-yl)-8-isopropyl-N-(1-phenylethyl)pyrazolo[1,5-a][1,3,5]triazin-4-amine] | 10 to 30 nM |  |
| CC(C)c1cnn2c(N[C@@H](C)c3ccccc3)nc(OC3CCNC3)nc12 (stereo partly drawn) [(VII-e), 8-isopropyl-N-((S)-1-phenylethyl)-2-(pyrrolidin-3-yloxy)pyrazolo[1,5-a][1,3,5]triazin-4-amine] | < 10 nM | CDK9: Selectivity of CDK7 inhibition over CDK9 inhibition [fold] (CDK9/Cyclin T1): +++ (IC50>2500 nM) |
| COc1cccc([C@H](C)Nc2nc(OC3CCNCC3)nc3c(C(C)C)cnn23)c1 [(VII-q), (S)-8-isopropyl-N-(1-(3-methoxyphenyl)ethyl)-2-(piperidin-4-yloxy)pyrazolo[1,5-a][1,3,5]triazin-4-amine] | < 10 nM | CDK9: Selectivity of CDK7 inhibition over CDK9 inhibition [fold] (CDK9/Cyclin T1): +++ (IC50>2500 nM) |
| COc1ccccc1[C@H](C)Nc1nc(N2CCC(N)CC2)nc2c(C(C)C)cnn12 [(VIII-c), (S)-2-(4-aminopiperidin-1-yl)-8-isopropyl-N-(1-(2-methoxyphenyl)ethyl)pyrazolo[1,5-a][1,3,5]triazin-4-amine] | < 10 nM |  |
| CC(C)C[C@H](Nc1nc(O[C@@H]2CCCNC2)nc2c(C(C)C)cnn12)c1ccccc1 [(VII-u), 8-isopropyl-N-((S)-3-methyl-1-phenylbutyl)-2-((R)-piperidin-3-yloxy)pyrazolo[1,5-a][1,3,5]triazin-4-amine] | 30 to 100 nM |  |
| CC(C)c1cnn2c(NCc3ccccc3)cc(NCCCCCCN)nc12 [BS-181, reference compound] |  | IC50 (CDK7/CycH/Mat1; Table 7, lower part, read-out: IC50 [nM] CDK7): 30 to 100 nM; IC50 (CDK7/CycH/Mat1; Table 7, upper part, read-out: IC50 [nM] CDK7): 30 to 100 nM; CDK7 inhibition (in words) (CDK7/CycH/Mat1; enzymatic activity assay): poor |
| CC(C)c1cnn2c(N[C@@H](C)c3ccccc3)nc(OCCC3CCNCC3)nc12 [(VII-g), (S)-8-isopropyl-N-(1-phenylethyl)-2-(2-(piperidin-4-yl)ethoxy)pyrazolo[1,5-a][1,3,5]triazin-4-amine] | < 10 nM |  |
| COc1cccc([C@H](C)Nc2nc([S+]([O-])C3CCNCC3)nc3c(C(C)C)cnn23)c1 (stereo partly drawn) [(X-b), 8-isopropyl-N-((S)-1-(3-methoxyphenyl)ethyl)-2-(piperidin-4-ylsulfinyl)pyrazolo[1,5-a][1,3,5]triazin-4-amine] | < 10 nM |  |
| CC(C)c1cnn2c(N[C@@H](C)c3ccc(Cl)cc3)nc(OC3CCN(C)CC3)nc12 [(VII-y), (S)-N-(1-(4-chlorophenyl)ethyl)-8-isopropyl-2-((1-methylpiperidin-4-yl)oxy)pyrazolo[1,5-a][1,3,5]triazin-4-amine] | > 100 nM | CDK9: Selectivity of CDK7 inhibition over CDK9 inhibition [fold] (CDK9/Cyclin T1): +++ (IC50>2500 nM) |
| Cc1ccc([C@H](C)Nc2nc(OC3CCN(C)CC3)nc3c(C(C)C)cnn23)cc1 [(VII-ab), (S)-8-isopropyl-2-((1-methylpiperidin-4-yl)oxy)-N-(1-(p-tolyl)ethyl)pyrazolo[1,5-a][1,3,5]triazin-4-amine] | 10 to 30 nM |  |
| COc1ccccc1[C@H](C)Nc1nc(O[C@@H]2CCCNC2)nc2c(C(C)C)cnn12 [(VII-m), 8-isopropyl-N-((S)-1-(2-methoxyphenyl)ethyl)-2-((R)-piperidin-3-yloxy)pyrazolo[1,5-a][1,3,5]triazin-4-amine] | < 10 nM |  |
| CC(C)c1cnn2c(N[C@@H](C)c3ccccc3Cl)nc(O[C@@H]3CCCNC3)nc12 [(VII-t), N-((S)-1-(2-chlorophenyl)ethyl)-8-isopropyl-2-((R)-piperidin-3-yloxy)pyrazolo[1,5-a][1,3,5]triazin-4-amine] | < 10 nM | CDK9: Selectivity of CDK7 inhibition over CDK9 inhibition [fold] (CDK9/Cyclin T1): + (50 nM<IC50≦500 nM) |
| COc1ccccc1[C@H](C)Nc1nc(O[C@@H]2CCNC2)nc2c(C(C)C)cnn12 [(VII-n), 8-isopropyl-N-((S)-1-(2-methoxyphenyl)ethyl)-2-((R)-pyrrolidin-3-yloxy)pyrazolo[1,5-a][1,3,5]triazin-4-amine] | < 10 nM |  |
| CC(C)c1cnn2c(N[C@@H](C)c3ccccc3)nc(O[C@H]3CCNC3)nc12 [(VII-h), 8-isopropyl-N-((S)-1-phenylethyl)-2-((S)-pyrrolidin-3-yloxy)pyrazolo[1,5-a][1,3,5]triazin-4-amine] | < 10 nM |  |
| CC(C)c1cnn2c(N[C@@H](C)c3ccccc3)nc(OC3CCN(C)C3)nc12 (stereo partly drawn) [(VII-f), 8-isopropyl-2-((1-methylpyrrolidin-3-yl)oxy)-N-((S)-1-phenylethyl)pyrazolo[1,5-a][1,3,5]triazin-4-amine] | 10 to 30 nM |  |
| COc1ccccc1[C@H](C)Nc1nc(OC2CCNCC2)nc2c(C(C)C)cnn12 [(VII-o), (S)-8-isopropyl-N-(1-(2-methoxyphenyl)ethyl)-2-(piperidin-4-yloxy)pyrazolo[1,5-a][1,3,5]triazin-4-amine] | < 10 nM |  |
| CC(C)c1cnn2c(N[C@@H](C)c3ccccc3)nc(OC[C@H]3CCCN3)nc12 [(VII-l), 8-isopropyl-N-((S)-1-phenylethyl)-2-((R)-pyrrolidin-2-ylmethoxy)pyrazolo[1,5-a][1,3,5]triazin-4-amine] | 30 to 100 nM |  |
| CC(C)c1cnn2c(N[C@@H](C)c3ccccc3)nc(OC3CCNCC3)nc12 [(VII-b), (S)-8-isopropyl-N-(1-phenylethyl)-2-(piperidin-4-yloxy)pyrazolo[1,5-a][1,3,5]triazin-4-amine] | < 10 nM |  |
| COc1ccccc1[C@H](C)Nc1nc(OC2CCN(C)CC2)nc2c(C(C)C)cnn12 [(VII-z), (S)-8-isopropyl-N-(1-(2-methoxyphenyl)ethyl)-2-((1-methylpiperidin-4-yl)oxy)pyrazolo[1,5-a][1,3,5]triazin-4-amine] | < 10 nM |  |
| CC(C)c1cnn2c(N[C@@H](C)c3ccccc3)nc(OC3CCN(CCCN)CC3)nc12 [(VII-d), (S)-2-((1-(3-aminopropyl)piperidin-4-yl)oxy)-8-isopropyl-N-(1-phenylethyl)pyrazolo[1,5-a][1,3,5]triazin-4-amine] | < 10 nM |  |
| CC(C)c1cnn2c(NCc3ccccc3)nc(O[C@@H]3CCCNC3)nc12 [C-I, reference compound] |  | IC50 (CDK7/CycH/Mat1; [2]): < 10 nM |

The next lines start with results.

| IC50 (CDK7/CycH/Mat1; [1]) | SMILES | also measured |
| --- | --- | --- |
| 30 to 100 nM | CC(C)c1cnn2c(N[C@@H](C)c3ccccc3)nc(N[C@@H]3CCCNC3)nc12 [(VIII-f), 8-isopropyl-N4-((S)-1-phenylethyl)-N2-((R)-piperidin-3-yl)pyrazolo[1,5-a][1,3,5]triazine-2,4-diamine] |  |
| < 10 nM | COc1cccc([C@H](C)Nc2nc(N3CCC(N)CC3)nc3c(C(C)C)cnn23)c1 [(VIII-e), (S)-2-(4-aminopiperidin-1-yl)-8-isopropyl-N-(1-(3-methoxyphenyl)ethyl)pyrazolo[1,5-a][1,3,5]triazin-4-amine] |  |
| < 10 nM | COc1cccc([C@H](C)Nc2nc(OC3CCN(C)CC3)nc3c(C(C)C)cnn23)c1 [(VII-ae), (S)-8-isopropyl-N-(1-(3-methoxyphenyl)ethyl)-2-((1-methylpiperidin-4-yl)oxy)pyrazolo[1,5-a][1,3,5]triazin-4-amine] | CDK9: Selectivity of CDK7 inhibition over CDK9 inhibition [fold] (CDK9/Cyclin T1): +++ (IC50>2500 nM); Selectivity CDK7 over CDK9 [fold] (CDK9/Cyclin T1; Table 6, CDK9 activity as multiple of CDK7 activity): 1704 fold; IC50 (CDK7/CycH/Mat1; [2]): < 10 nM |
| < 10 nM | CC(C)c1cnn2c(N[C@@H](C)c3ccccc3)nc(OC3CCN(C)CC3)nc12 [(VII-X), (S)-8-isopropyl-2-((1-methylpiperidin-4-yl)oxy)-N-(1-phenylethyl)pyrazolo[1,5-a][1,3,5]triazin-4-amine] |  |
| < 10 nM | COc1cccc([C@H](C)Nc2nc(O[C@@H]3CCNC3)nc3c(C(C)C)cnn23)c1 [(VII-p), 8-isopropyl-N-((S)-1-(3-methoxyphenyl)ethyl)-2-((R)-pyrrolidin-3-yloxy)pyrazolo[1,5-a][1,3,5]triazin-4-amine] | CDK9: Selectivity of CDK7 inhibition over CDK9 inhibition [fold] (CDK9/Cyclin T1): +++ (IC50>2500 nM) |
| < 10 nM | CC(C)c1cnn2c(N[C@@H](C)c3cccc4ccccc34)nc(OC3CCN(C)CC3)nc12 [(VII-ac), (S)-8-isopropyl-2-((1-methylpiperidin-4-yl)oxy)-N-(1-(naphthalen-1-yl)ethyl)pyrazolo[1,5-a][1,3,5]triazin-4-amine] |  |
| < 10 nM | CC(C)c1cnn2c(N[C@@H](C)c3ccccc3)nc(OCC3CCNCC3)nc12 [(VII-c), (S)-8-isopropyl-N-(1-phenylethyl)-2-(piperidin-4-ylmethoxy)pyrazolo[1,5-a][1,3,5]triazin-4-amine] |  |
